Where “and” joins values, the source holds several entries; their conditions need not be identical. Identical values can stand only once.
Columns and labels:
dopaminergic neurons = assay: Inhibitory action on neurodegeneration: MPTP HCl-treated mice, specific [3H]-mazindol binding in the striatum; assay type: in vivo, C57BL/6NCrj mice; details: for amount of specifically bound [3H]-mazindol in the striatum: striatum removed after 1 week, mean ± standard error
Protocol: The experiment was conducted according to the method of Sundstrom et al. (Brain. Res. Bulletin, 21, 257–263 (1988)).
In the experiment, 9- to 10-week-old male C57BL/6NCrj mice (supplied by Nippon Charles River) were used. During the period of preliminary breeding, the animals were kept in a laboratory at room temperature (22 to 24° C.) under 50 to 60% humidity and allowed food and water ad libitum.
1-Methyl-4-phenyl-1,2,3,6-tetrahydropyridine hydrochloride (abbreviated hereinafter as MPTP HCl (RBI Co., Ltd.)) was dissolved at a concentration of 4 mg/ml in physiological saline. A test compound was suspended at a concentration of 1 mg/ml in 0.3% […]. Each test group consisted of 9 to 10 animals, and a control group was intraperitoneally given physiological saline, and an MPTP HCl administration group and an MPTP HCl+test compound administration group were intraperitoneally given MPTP HCl (40 mg/kg).
After 1 hour, the control group and the MPTP HCl administration group were orally given 0.3% Tween, and the MPTP HCl+test compound administration group was orally given the test compound (10 mg/kg). After 1 week, the animals were decapitated, and the striatum was removed therefrom under cooling on ice. The striatum was stored in a deep freezer (<−80° C.) before a binding experiment.
A [^3H]-mazindol binding test was conducted in the following method. A striatum and 300 μl of buffer (120 mM NaCl, 5 mM KCl, 50 mM Tris, pH 7.9) were put into a micro-centrifuge tube and homogenized by portable homogenizer S-203 (manufactured by Ikeda Rika) and centrifuged at 15,000 rpm, 4° C. for 5 minutes (by KUBOTA 1710). The precipitates were suspended in 300 μl of buffer and then centrifuged again at 15,000 rpm, 4° C. for 5 minutes. The precipitates were suspended in 500 μl of buffer and then distributed into four test tubes in 100 μl portions. The remaining suspension (100 μl) was used for protein quantification. To determine non-specific binding, nomifensine maleate (RBI Co., Ltd.) (final concentration: 10 μM) as an inhibitor of dopamine uptake was added to two test tubes among the four test tubes. The binding reaction was initiated by adding 25 μl of [^3H]-mazindol (final concentration: 10 nM) (Spec. Act. 888 GBq/mmol, a product of NET). The mixture was incubated for 1 hour under cooling on ice, and the striatum homogenate was adsorbed onto a glass filter (Whatman, GF/B) in a cell harvester and washed three times with 5 ml of buffer. The radioactivity on the glass filter was measured with a liquid scintillation counter. For each striatum, specific [^3H]-mazindol binding was determined by subtracting the average of non-specific [^3H]-mazindol binding from the average of total [^3H]-mazindol binding.
Protein quantification was conducted by use of a Bio-Rad DC protein assay kit (Bio-Rad Co., Ltd.) with bovine serum albumin (Sigma Co., Ltd.) as a standard. Specific [^3H]-mazindol binding was expressed as the amount of bound [^3H]-mazindol per unit weight of protein, and the mean±standard error was determined for each group (10 animals).
In Table 2, the results are expressed in terms of the amount of specifically bound [^3H]-mazindol (fmol/mg protein) in the striatum.

dd-strain male mice = assay: Acute toxicity test (minimum lethal dose); assay type: in vivo; details: oral administration, mortality seven days after the administration
Source text: Test compounds were orally or intraperitoneally administered to groups of dd-strain male mice weighing 20±1 g, each group consisting of three mice.

[1] = MPTP HCl 40 mg/kg i.p., test compound 10 mg/kg orally after 1 hour

SMILES	amount of specifically bound [3H]-mazindol in the striatum (dopaminergic neurons; [1]) [fmol/mg protein]	amount of specifically bound [3H]-mazindol in the striatum (dopaminergic neurons; MPTP HCl 40 mg/kg i.p. alone (0.3% Tween orally after 1 hour), hydrochloride)	reduction of the amount of specifically bound [3H]-mazindol by administration of MPTP HCl (dopaminergic neurons; statement in words, 10 mg/kg orally, MPTP HCl mice)	minimum lethal dose (MLD) (dd-strain male mice)
CCn1c(=O)c2c(nc(/C=C/c3cc(OC)c4c(c3)OCO4)n2C)n(CC)c1=O [Compound 3, (E)-1,3-diethyl-8-(3-methoxy-4,5-methylenedioxystyryl)-7-methylxanthine]	794.9 ± 28.5			
CN1CC=C(c2ccccc2)CC1.Cl [MPTP HCl, 1-Methyl-4-phenyl-1,2,3,6-tetrahydropyridine hydrochloride, reference compound]		674.2 ± 38.1 fmol/mg protein and 616.3 ± 32.8 fmol/mg protein and 621.2 ± 27.7 fmol/mg protein		
CCn1c(=O)c2c(nc(/C=C/c3ccc(OC)c(OC)c3)n2C)n(CC)c1=O [Compound 1, (E)-1,3-diethyl-8-(3,4-dimethoxystyryl)-7-methylxanthine]	950.9 ± 54.1		inhibited	greater than 1000 mg/kg
COc1cc(/C=C/c2nc3c(c(=O)n(C)c(=O)n3C)n2C)cc(OC)c1OC [Compound 4, (E)-8-(3,4,5-trimethoxystyryl)caffeine]	923.5 ± 51.1			
CCCn1c(=O)c2c(nc(/C=C/c3ccc(OC)c(OC)c3)n2C)n(CCC)c1=O [Compound 2, (E)-8-(3,4-dimethoxystyryl)-1,3-dipropyl-7-methylxanthine]	784.8 ± 41.6			

— US7115614B2, “Method of treating brain ischemia” (Kyowa Hakko Kogyo Co., Ltd., priority 1997, dated 2006)
